According to patent publication US9447054B2, “Anticancer supplement agent including benzo[D]oxazol derivative as effective ingredient” (KOREA INSTITUTE OF RADIOLOGICAL & MEDICAL SCIENCES, priority 2014, dated 2016):
Blank lines part the entries; values can stand above or below the compound they belong to.

Columns and labels:
[1] = tested on: lung cancer cells (H1299); assay: Colony-forming assay with gamma irradiation, lung cancer cells; format: cell-based; conditions: H1299, 1 μM to 10 μM for 2 hours, gamma radiation, 7 days, FIG. 8
Protocol: (§1) Lung cancer cells (H1299, ATCC, CRL-5803™), brain cancer cells (U87MG, ATCC, HTB-14™ human glioblastoma), breast cancer cells (MDA-MB231, ATCC, HTB-26™ human breast adenocarcinoma), and colorectal cancer cells (HCT116, ATCC, CCL-247™ human colorectal carcinoma) were each inoculated in each well of a 96-well plate containing Rosewell Park Memorial Institute medium (RPMI) 1640 enriched with 10% FBS, 100 μg/ml of streptomycin, and 100 unit/ml of penicillin. Then, these cells were each treated with 2-(5-bromonaphthalene-1-yl)benzo[d]oxazole-5-amine (Derivative #1) for 2 hours in a concentration of 1 μM to 10 μM, were irradiated using gamma radiation according to radiation dose, and were cultured for 7 days under conditions of 5% CO2 and a temperature of 37° C. The cultured cells were washed out with phosphate buffered saline (PBS), and then, were stained with a mixture of 1% methylene blue and 100% methanol. Afterwards, a number of colony-forming cells was counted, and all the treatment above were repeatedly performed 3 times.

[2] = tested on: lung cancer cells (H1299); assay: CCK-8 cell viability analysis (cytotoxicity of the derivative alone); format: cell-based; conditions: 1 μM, 5 μM and 10 μM, FIG. 2
Source text: (§2) Here, in order to confirm that the inhibitory activity of luciferase was caused by an Nrf2 inhibitor, rather than by apoptosis of the cells, cell counting kit-8 (CCK-8) (Dojindo, Japan) for the determination of cell viability and a spectroscopic device (Labsystems, USA) were used to measure absorbance values of the cells at a wavelength of 480 nm.
as §2, with “by” for “by an”, “inhibitors, i.e., Derivative #2 to #10,” for “inhibitor,”, “CCK-8” for “cell counting kit-8 (CCK-8)”

[3] = tested on: brain cancer cells (U87MG); assay: Colony-forming assay with gamma irradiation, brain cancer cells; format: cell-based, human; conditions: 1 μM to 10 μM for 2 hours, gamma radiation, 7 days, FIG. 9
Protocol: as §1

[4] = tested on: lung cancer cells (H1299); assay: ROS production by DCF-DA staining and FACS, combined with irradiation; format: cell-based
Protocol: The lung cancer cells (H1299) that were cultured in the same manner as in Example 1 were treated with dihydrodichlorofluorescein diacetate (DCF-DA, Sigma, USA) and were subjected to fluorescence staining. The stained cells were then treated with 2-(5-bromonaphthalene-1-yl)benzo[d]oxazole-5-amine (Derivative #1) for 2 hours in a concentration of 5 μM or 10 μM, and 5 Gy of irradiation. Afterwards, an increase in ROS production upon inhibition of Nrf2 was analyzed by FACS.
In addition, in order to confirmed whether the values measured by FACS analysis refer to the ROS production, the lung cancer cells (H1299) were treated with 2 mM of N-acetyl-L-cysteine (NAC), which is a ROS inhibitor, and then, were treated in combination with 2-(5-bromonaphthalene-1-yl)benzo[d]oxazole-5-amine (Derivative #1) in a concentration of 10 μM and irradiation. As a result, it was confirmed that the ROS production was inhibited.

Nrf2 protein = molecular target: T1, Nrf2 protein (Homo sapiens, UniProt Q16236); assay: Western blot of Nrf2 protein in tBHQ-treated lung cancer cells; format: cell-based; conditions: 5 μM or 10 μM, 2 hours, FIG. 5
T1 construct: endogenous in cells
T1 sequence (Q16236 1-605): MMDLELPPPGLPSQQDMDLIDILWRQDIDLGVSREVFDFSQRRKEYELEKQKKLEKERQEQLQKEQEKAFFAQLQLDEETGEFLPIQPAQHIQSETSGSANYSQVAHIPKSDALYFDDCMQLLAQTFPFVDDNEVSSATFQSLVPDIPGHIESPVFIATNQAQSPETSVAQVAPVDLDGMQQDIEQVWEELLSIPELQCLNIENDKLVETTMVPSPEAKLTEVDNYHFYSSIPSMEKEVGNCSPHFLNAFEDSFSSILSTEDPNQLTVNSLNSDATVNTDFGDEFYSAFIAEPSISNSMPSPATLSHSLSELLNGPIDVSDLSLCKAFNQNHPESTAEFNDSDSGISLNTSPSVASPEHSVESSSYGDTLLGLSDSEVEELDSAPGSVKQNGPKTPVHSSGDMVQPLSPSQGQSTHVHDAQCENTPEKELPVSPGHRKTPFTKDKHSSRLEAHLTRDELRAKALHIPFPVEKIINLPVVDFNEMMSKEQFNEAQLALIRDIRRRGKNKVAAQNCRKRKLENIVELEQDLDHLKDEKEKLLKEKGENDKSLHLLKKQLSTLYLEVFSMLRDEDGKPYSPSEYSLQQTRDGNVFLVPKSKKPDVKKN
Protocol: (§3) By using a western blot, it was confirmed whether 2-(5-bromonaphthalene-1-yl)benzo[d]oxazole-5-amine (Derivative #1), which is a Nrf2 inhibitor, has targeted a Nrf2 protein and its downstream antioxidant enzyme heme oxygenase (HO)-1, based on the inhibitory activity of the ARE-pGL3 luciferase.
(§4) The lung cancer cells were treated with 2-(5-bromonaphthalene-1-yl)benzo[d]oxazole-5-amine (Derivative #1) in a concentration of about 5 μM or about 10 μM, and 2 hours later, the protein expression was analyzed to measure amounts of Nrf2 and HO-1 proteins, which were increased by tBHQ treatment.
(§5) First, the cells treated with 2-(5-bromonaphthalene-1-yl)benzo[d]oxazole-5-amine (Derivative #1) were obtained, and then, cytosolic fractions were obtained therefrom by using a method commonly used in the art.
(§6) The cytosolic fractions were separated by electrophoresis using 10% gradient SDS-PAGE, and then, were transferred to a nitrocellulose membrane (BioRad, Hercules, Calif., USA). The membrane was blocked with 5% skim milk, and then, a reaction with primary antibodies, e.g., anti-Nrf2 (Abcam, USA) and an HO-1 antibody (Oncogene Research Products, USA), was allowed. […]

[5] = tested on: lung cancer cell strain (H1299); assay: CCK-8 analysis after derivative plus doxorubicin (anticancer agent sensitivity); format: cell-based; conditions: 48 hours, FIG. 13
Protocol: In order to confirm whether the above-described benzo[d]oxazole derivative that increases the apoptotic effects of ROS also have such apoptotic effects when the benzo[d]oxazole derivative is used in combination with, other than radiation, an anticancer agent to produce ROS, the synthesized benzo[d]oxazole derivative was treated in combination with doxorubicin, which is an anticancer agent.
The lung cancer cell strain (H1299) was treated with each of the synthesized benzo[d]oxazole derivatives (Derivatives #1 to #10) for 2 hours in a concentration of 10 μM, and then, were treated with doxorubicin in a concentration of 150 nM. After 48 hours of the treatment, CCK-8 for the determination of cell viability was used to measure the lung cancer cells that were died by apoptosis.

[6] = tested on: colorectal cancer cells (HCT116); assay: Colony-forming assay with gamma irradiation, colorectal cancer cells; format: cell-based, human; conditions: HCT116, 1 μM to 10 μM for 2 hours, gamma radiation, 7 days, FIG. 11
Protocol: as §1

heme oxygenase (HO)-1 = assay: Western blot of HO-1 protein in tBHQ-treated lung cancer cells; format: cell-based; conditions: 5 μM or 10 μM, 2 hours, FIG. 5
Protocol: as §3, §4, §5, §6

[7] = tested on: breast cancer cells (MDA-MB231); assay: Colony-forming assay with gamma irradiation, breast cancer cells; format: cell-based, human; conditions: MDA-MB231, 1 μM to 10 μM for 2 hours, gamma radiation, 7 days, FIG. 10
Protocol: as §1

Nrf2 = assay: ARE-pGL3 (Nrf2-responsive) luciferase reporter analysis in tBHQ-treated lung cancer cells; format: cell-based
Protocol: Lung cancer cells (H1299) purchased from American Type Culture Collection (ATCC, CRL-5803™) were cultured in Dulbecco's modified Eagle's medium (DMEM) enriched with 10% fetal bovine serum (FBS), 100 μg/ml of streptomycin, and 100 unit/ml of penicillin, under conditions of 5% CO2 and a temperature of 37° C.
Then, the cells were transformed by using Lipofectamine 2000 (In vitrogen, Life technologies, USA) (i.e., a plasmid transfection reagent used in DMEM) so that an antioxidant response element (ARE)-pGL3 luciferase plasmid to which an Nrf2 transcription factor can bind was introduced to the cells, according to the manufacturer's instructions.
About 20,000 of the transformed cells were inoculated in each well of a 96-well plate, and then, the cells were cultured for 24 hours under the same conditions described above. Afterwards, tertiary butylhydroquinone (tBHQ) that activates ARE was added to each well. Accordingly, it was confirmed that activity of luciferase was increased at least about 3 times as large as activity of luciferase in cells that were not treated with tBHQ.
Next, the tBHQ-treated cells were additionally treated with 2-(5-bromonaphthalene-1-yl)benzo[d]oxazole-5-amine (ChemBridge, cat#5721754, San Diego, Calif., USA) (Derivative #1) in concentration of 1 μM, 5 μM, and 10 μM, and then, were incubated for 18 hours. […]

amount of Nrf2 protein increased by tBHQ treatment (Nrf2 protein): reduced depending on the concentration
SMILES: Nc1ccc2oc(-c3cccc4c(Br)cccc34)nc2c1 [Derivative #1, 2-(5-bromonaphthalene-1-yl)benzo[d]oxazole-5-amine]
apoptotic effects on cancer cells by irradiation (colony-forming cells) [1]: increased apoptotic effects
cytotoxicity (CCK-8 viability) [2]: no cytotoxicity
apoptotic effects on cancer cells by irradiation (colony-forming cells) [3]: increased apoptotic effects
ROS production relative to 5 Gy of irradiation only ([4]; H1299, 5 μM for 2 hours plus 5 Gy irradiation): about 3.5 times
ROS production relative to 5 Gy of irradiation only ([4]; H1299, 10 μM for 2 hours plus 5 Gy irradiation): ~4.6 times
apoptotic cell death relative to control group ([5]; H1299, derivative 10 μM for 2 hours then doxorubicin 150 nM): about 3.7 times
apoptotic effects on cancer cells by irradiation (colony-forming cells) [6]: increased apoptotic effects
amount of HO-1 protein increased by tBHQ treatment (heme oxygenase (HO)-1): reduced depending on the concentration
apoptotic effects on cancer cells by irradiation (colony-forming cells) [7]: increased apoptotic effects
inhibitory activity of ARE-responsive luciferase (Nrf2; tBHQ-treated H1299, 1 μM, 5 μM and 10 μM, 18 hours, FIG. 1): dependent upon concentration

SMILES: CC(=O)N[C@@H](CS)C(=O)O [NAC, N-acetyl-L-cysteine, reference compound]
ROS production after ROS inhibitor treatment ([4]; H1299, 2 mM NAC, then Derivative #1 10 μM plus irradiation): inhibited

SMILES: COc1cccc2c1C(=O)c1c(O)c3c(c(O)c1C2=O)C[C@@](O)(C(=O)CO)C[C@@H]3O[C@H]1C[C@H](N)[C@H](O)[C@H](C)O1 [doxorubicin, reference compound]
apoptotic cell death relative to control group ([5]; H1299, doxorubicin 150 nM only): about 1.35 times

SMILES: CC(C)(C)c1cc(O)ccc1O [tBHQ, tertiary butylhydroquinone, reference compound]
activity of luciferase relative to cells not treated with tBHQ (Nrf2; ARE-pGL3 transformed H1299 cells, tBHQ added to each well): at least 3 times
